# Experimental data from paper PMC9823097, “Dysregulation of PRMT5 in chronic lymphocytic leukemia promotes progression with high risk of Richter’s transformation” (Nature Communications, 2023).
# Where two headings read alike, the source gives them in different places.
# Columns and labels:
# [1] = test system: Granta-519 lymphoma cell line; experiment: Reducing sDMA assay (western blot of cellular sDMA) in Granta-519; format: cell-based; details: for sDMA signal normalized to β-Actin and DMSO control: DMSO = 100
# Procedure: For western blot analysis of Cellular sDMA in Granta-519, one day before the experiment, Granta-519 cells were passaged to a density of 0.5 × 10^6 cells/ml. The next day, Granta-519 cells were spun down at 1500 rpm for 4 min, resuspended in fresh medium at 0.5E6 cells/ml and 3 mL of culture (1.5E6 cells) were seeded into a six-well plate. Eight-point, threefold serial dilutions of compound working stocks were added to cells (3 µl, 1:1000 dilution, DMSO concentration was 0.1%; final top concentration at 1 µM) and incubated for 3 days. Cells incubated with DMSO was used as vehicle control. Cells were harvested 3 days later, resuspended in 15 µL PBS, lysed in 4% SDS, and homogenized by passing through homogenizer column (Omega Biotek, Catalog #: HCR003). Total protein concentrations were determined by BCA assay (ThermoFisher Scientific, Catalog #: 23225). Lysates were mixed with 5× Laemmli buffer and boiled for 5 min. Forty micrograms of total protein was separated on SDS-PAGE gels (Bio-Rad, catalog #: 4568083, 4568043), transferred to PVDF membrane, and blocked with 5% dry milk (Bio-Rad, Catalog #: 1706404) in TBS with 0.1% v/v Tween20 (TBST) for 1 h at room temperature (RT), and incubated with primary antibodies (sDMA: Cell signaling, Catalog #: 13222, 1:3,000; β-actin: sigma, Catalog #: A2228, 1:5000) in 5% dry milk in TBST at 4 °C overnight. The next day, membranes were washed with TBST, 5 × 5 min, and incubated with HRP conjugated seconded antibody (GE Healthcare; Catalog #: NA9341 ML, NA931-1ML; 1:5000) for 2 hours at RT, followed by 5 × 5 min washes with TBST, and incubation with ECL substrates (Bio-Rad, Catalog #: 1705061, 1705062). The chemiluminescent signal was captured with Fluochem HD2 imager (Proteinsimple). SmD3me2s bands were quantified by ImageJ. Signals were normalized to β-Actin and DMSO control. IC50 values were calculated using Graphpad Prism (v9.2.0) ([Inhibitor] vs. normalized response – Variable slope).
# KARPAS-422 = experiment: Anti-proliferative activity, MTS assay, KARPAS-422; format: cell-based; details: Homo sapiens, DLBCL, read-out: PRT382 IC50 (anti-proliferative)
# Procedure: (§1) Cell proliferation was assessed via MTS (3-[4,5-dimethylthiazol-2-yl]-5-[3-carboxymethoxyphenyl]-2-[4-sulfophenyl]-2H-tetrazolium) assay (Sigma), using the tetrazolium dye […]. Cell apoptosis was evaluated by Annexin V-FITC or PE and propidium iodide (PI) staining using FC500 cytometer (Beckman-Coulter, Indianapolis, IN) following the manufacturer’s procedure (BD Pharmingen, Billerica, MA)[55]. For cell cycle analysis, cells were fixed with cold ethanol overnight and then stained before analysis with 30 μg/mL propidium iodide (Invitrogen) and 200 μg/mL RNase (Sigma-Aldrich) in 0.1 % v/v Triton X-100 (Sigma-Aldrich). Cell cycle data analysis was performed using ModFit LT software (Verity Software House, Topsham, ME).
# [2] = test system: leukemia and lymphoma cell lines; experiment: Proliferation of a panel of leukemia and B-lymphoma cell lines, 72 h, MTS assay; format: cell-based; details: for IC50: CCMCL-1, JVM-2, U-2932, RL, and KARPAS-422, read-out: Anti-proliferative IC50 values, range over cell lines
# Procedure: as §1
# [3] = target: recombinant human PRMT5/MEP50 (Homo sapiens, UniProt O14744); experiment: Filtration binding assay with recombinant human PRMT5/MEP50 (biochemical potency); details: histone H2A as the protein substrate
# Sequence of recombinant human PRMT5/MEP50 (O14744 whole entry): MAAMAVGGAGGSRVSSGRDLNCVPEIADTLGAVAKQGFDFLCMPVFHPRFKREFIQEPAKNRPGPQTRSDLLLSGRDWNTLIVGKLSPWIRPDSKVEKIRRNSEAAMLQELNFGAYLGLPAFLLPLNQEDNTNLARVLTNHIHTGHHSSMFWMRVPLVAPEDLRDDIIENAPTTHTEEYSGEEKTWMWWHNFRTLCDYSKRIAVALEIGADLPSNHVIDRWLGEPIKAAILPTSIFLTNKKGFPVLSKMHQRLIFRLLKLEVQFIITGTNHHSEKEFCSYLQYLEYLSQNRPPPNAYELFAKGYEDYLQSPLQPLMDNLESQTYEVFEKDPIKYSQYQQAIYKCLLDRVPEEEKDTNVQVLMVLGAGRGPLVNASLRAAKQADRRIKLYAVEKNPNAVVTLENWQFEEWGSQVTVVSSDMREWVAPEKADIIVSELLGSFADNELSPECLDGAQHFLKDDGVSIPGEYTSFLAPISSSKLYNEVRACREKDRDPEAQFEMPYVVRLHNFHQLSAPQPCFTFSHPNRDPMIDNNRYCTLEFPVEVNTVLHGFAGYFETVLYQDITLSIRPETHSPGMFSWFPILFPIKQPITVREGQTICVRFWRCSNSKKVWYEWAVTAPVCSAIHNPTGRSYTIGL
# Sequence of recombinant human PRMT5/MEP50 (Q9BQA1 whole entry partner): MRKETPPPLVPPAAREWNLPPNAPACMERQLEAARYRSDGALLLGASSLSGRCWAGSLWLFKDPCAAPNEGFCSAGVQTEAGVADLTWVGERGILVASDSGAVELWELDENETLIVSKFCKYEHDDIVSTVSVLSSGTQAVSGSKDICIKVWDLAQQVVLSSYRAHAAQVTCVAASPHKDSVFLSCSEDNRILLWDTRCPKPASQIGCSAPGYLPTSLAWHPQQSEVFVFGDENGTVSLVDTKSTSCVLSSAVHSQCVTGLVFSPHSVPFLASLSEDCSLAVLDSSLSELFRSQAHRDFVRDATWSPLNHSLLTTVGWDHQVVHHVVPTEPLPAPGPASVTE
smiles,measurement,setting,value
"CON=c1nc[nH]c2c1ccn2[C@@H]1O[C@H]([C@H](O)c2ccc(Cl)c(Cl)c2)[C@@H](O)[C@H]1O.Cl [PRT382, (2 R,3 S,4 R,5 R)-2-[(R)-(3,4-dichlorophenyl)-hydroxy-methyl]-5-[(4Z)-4-methoxyimino-1H-pyrrolo[2,3-d]pyrimidin-7-yl]tetrahydrofuran-3,4-diol hydrochloride]",sDMA signal normalized to β-Actin and DMSO control,[1]; Conc. 0.000457247 µM,88.6989
same,sDMA signal normalized to β-Actin and DMSO control,[1]; Conc. 0.00137174 µM,97.8569
same,sDMA signal normalized to β-Actin and DMSO control,[1]; Conc. 0.00411523 µM,93.6002
same,sDMA signal normalized to β-Actin and DMSO control,[1]; Conc. 0.0123457 µM,75.2291
same,sDMA signal normalized to β-Actin and DMSO control,[1]; Conc. 0.037037 µM,39.1378
same,sDMA signal normalized to β-Actin and DMSO control,[1]; Conc. 0.111111 µM,15.0036
same,sDMA signal normalized to β-Actin and DMSO control,[1]; Conc. 0.333333 µM,6.086
same,sDMA signal normalized to β-Actin and DMSO control,[1]; Conc. 1 µM,6.863
same,IC50,"[1]; Homo sapiens, 72 h, Granta-519, 3 days",27 nM
same,IC50,KARPAS-422,23 nM
same,"proliferation relative to DMSO (=1), Figure 6F","[2]; CCMCL, 1e-9 M",0.94
same,"proliferation relative to DMSO (=1), Figure 6F","[2]; CCMCL, 1e-8 M",0.93
same,"proliferation relative to DMSO (=1), Figure 6F","[2]; CCMCL, 1e-7 M",0.55
same,"proliferation relative to DMSO (=1), Figure 6F","[2]; CCMCL, 1e-6 M",0.13
same,"proliferation relative to DMSO (=1), Figure 6F","[2]; CCMCL, 1e-5 M",0.12
same,IC50,[2]; earlier manuscript text quoted in the peer review file,10 to 100 nM
same,IC50,[2],10 to 500 nM
same,"proliferation relative to DMSO (=1), Figure 6F","[2]; Jeko, 1e-9 M",1
same,"proliferation relative to DMSO (=1), Figure 6F","[2]; Jeko, 1e-8 M",0.98
same,"proliferation relative to DMSO (=1), Figure 6F","[2]; Jeko, 1e-7 M",0.96
same,"proliferation relative to DMSO (=1), Figure 6F","[2]; Jeko, 1e-6 M",0.13
same,"proliferation relative to DMSO (=1), Figure 6F","[2]; Jeko, 1e-5 M",0.14
same,"proliferation relative to DMSO (=1), Figure 6F","[2]; Pfeiffer, 1e-9 M",0.99
same,"proliferation relative to DMSO (=1), Figure 6F","[2]; Pfeiffer, 1e-8 M",1
same,"proliferation relative to DMSO (=1), Figure 6F","[2]; Pfeiffer, 1e-7 M",0.76
same,"proliferation relative to DMSO (=1), Figure 6F","[2]; Pfeiffer, 1e-6 M",0.18
same,"proliferation relative to DMSO (=1), Figure 6F","[2]; Pfeiffer, 1e-5 M",0.22
same,"proliferation relative to DMSO (=1), Figure 6F","[2]; SU-DHL-4, 1e-9 M",1
same,"proliferation relative to DMSO (=1), Figure 6F","[2]; SU-DHL-4, 1e-8 M",1
same,"proliferation relative to DMSO (=1), Figure 6F","[2]; SU-DHL-4, 1e-7 M",0.79
same,"proliferation relative to DMSO (=1), Figure 6F","[2]; SU-DHL-4, 1e-6 M",0.13
same,"proliferation relative to DMSO (=1), Figure 6F","[2]; SU-DHL-4, 1e-5 M",0.15
same,IC50,[3],2.8 nM
